Reference: patent publication US10307355B2, “N-aralkylcarbonyldiamine compounds and personal care compositions comprising the same” (Conopco, Inc., priority 2015, dated 2019)

Molecular target: T1, human M3 receptor (Homo sapiens, UniProt P20309)
T1 construct: expressed in transfected cells; host or cells: CHO cells (membrane suspension)
Experiment: Muscarinic 3 receptor binding assay (3H-scopolamine displacement, CHO cell membranes)
Settings: inhibition of 3H-scopolamine binding to CHO cell suspension expressing the human M3 receptor
Experimental: The muscarinic 3 receptor binding assay was adapted from Perkin Elmer. […] Atropine (Sigma-Aldrich, St. Louis, Mo.) was used as a positive control. […] The binding reactions were terminated by filtering through the GFC plates and washing & filtering with ice-cold phosphate saline buffer (5×100 μL). Once the filters were dry, microscint scintillation cocktail (100 μL) was added to each well, allowed to sit for 20 min and the plates analyzed using a TopCount scintillation counter. […] Curve fitting of % inhibition versus concentration using Excell software allowed determination of IC50 values for test compounds.

T1 sequence (P20309 whole entry): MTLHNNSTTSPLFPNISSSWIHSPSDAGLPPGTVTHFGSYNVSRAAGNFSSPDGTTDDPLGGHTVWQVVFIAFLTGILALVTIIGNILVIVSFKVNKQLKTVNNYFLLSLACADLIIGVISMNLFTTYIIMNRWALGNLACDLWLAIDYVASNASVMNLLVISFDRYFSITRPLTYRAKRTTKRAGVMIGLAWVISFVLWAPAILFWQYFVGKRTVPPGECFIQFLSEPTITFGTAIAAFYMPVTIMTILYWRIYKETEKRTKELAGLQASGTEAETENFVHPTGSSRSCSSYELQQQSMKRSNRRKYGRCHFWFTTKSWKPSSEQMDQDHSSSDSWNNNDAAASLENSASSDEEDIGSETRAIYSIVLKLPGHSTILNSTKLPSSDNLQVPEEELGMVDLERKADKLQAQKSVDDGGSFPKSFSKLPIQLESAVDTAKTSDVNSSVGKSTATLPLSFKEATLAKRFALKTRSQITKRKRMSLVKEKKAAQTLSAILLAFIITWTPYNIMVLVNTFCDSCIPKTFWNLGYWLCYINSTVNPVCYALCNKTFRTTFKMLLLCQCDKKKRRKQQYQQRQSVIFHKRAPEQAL

CN(C)CCN(C)C(=O)C(c1ccccc1)C1CCCC1 (stereo not shown) [Compound 3c]
IC50: 3.3 µM
